One compound from publication PMC5554727 (The Journal of steroid biochemistry and molecular biology, 2017) can be followed below.

By IC50 is commonly meant the concentration needed to halve the response being measured.

This experiment addresses SULT1A1 (Homo sapiens, UniProt P50225). Put plainly: inhibition of sulfonation of […]C-p-nitrophenol by recombinant enzyme. The experiment is classed as biochemical.

Sequence of SULT1A1 (P50225 whole entry): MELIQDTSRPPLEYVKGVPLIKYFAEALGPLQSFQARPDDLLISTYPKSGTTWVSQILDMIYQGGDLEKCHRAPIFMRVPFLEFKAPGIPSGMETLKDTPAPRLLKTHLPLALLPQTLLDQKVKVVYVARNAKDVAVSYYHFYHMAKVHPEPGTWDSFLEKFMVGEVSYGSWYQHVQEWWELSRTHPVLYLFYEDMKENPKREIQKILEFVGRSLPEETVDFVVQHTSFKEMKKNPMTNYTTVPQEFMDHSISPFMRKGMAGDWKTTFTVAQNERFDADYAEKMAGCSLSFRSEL

Regarding `Cc1ccc(-c2cc(C(F)(F)F)nn2-c2ccc(S(N)(=O)=O)cc2)cc1` [celecoxib], the half-maximal inhibitory concentration (IC50) came out at 2100 nM.
